This is an account of results in patent publication US11584747B2, “Substituted pyridopyrimidinonyl compounds useful as T cell activators” (BRISTOL-MYERS SQUIBB COMPANY, priority 2019, dated 2023).

The target in test [1] is human DGKα (Homo sapiens (Human), UniProt P23743). Put plainly: DGKα LIPGLO assay (extruded liposome substrate, ADP-Glo luminescence). The test is classed as biochemical. A general note: In ADP-Glo the light output rises with the ADP produced.
In test [2] the target is human DGKζ (Homo sapiens (Human), UniProt Q13574). Put plainly: DGKζ LIPGLO assay (extruded liposome substrate, ADP-Glo luminescence). The test is classed as biochemical.
For test [3], the system named is human venous whole blood (IFN-γ). Put plainly: Human whole blood IFN-γ assay. The test is classed as cell-based. On the procedure:
Human venous whole blood (22.5 μL per well), obtained from healthy donors, was pre-treated with compounds for one hour at 37° C. in a humidified 95% air/5% CO2 incubator. The blood was stimulated with 2.5 μL anti-human CD3 and anti-CD28 mAb at a final concentration of 1 μg/mL each for 24 hours at 37° C. IFN-γ in the supernatants was measured using AlphLISA kit (Cat #AL217).

The mark [4] stands for this setting: liposome assay, read-out: DGK alpha LIPGLO IC50.
[5] abbreviates: liposome assay, read-out: DGK zeta LIPGLO IC50.
Setting [6] is: whole blood, normalized to 3 μM reference compound as 100% activation, read-out: IFN-γ Whole Blood Normalized EC50.
Where [7] appears, read: Homo sapiens, whole blood, normalized to 3 μM reference compound as 100% activation, read-out: IFN-γ Whole Blood Normalized EC50.

Where two headings read alike, the source gives them in different places.

human DGKζ, sequence (Q13574 other isoform, or with tags, fused parts or gaps): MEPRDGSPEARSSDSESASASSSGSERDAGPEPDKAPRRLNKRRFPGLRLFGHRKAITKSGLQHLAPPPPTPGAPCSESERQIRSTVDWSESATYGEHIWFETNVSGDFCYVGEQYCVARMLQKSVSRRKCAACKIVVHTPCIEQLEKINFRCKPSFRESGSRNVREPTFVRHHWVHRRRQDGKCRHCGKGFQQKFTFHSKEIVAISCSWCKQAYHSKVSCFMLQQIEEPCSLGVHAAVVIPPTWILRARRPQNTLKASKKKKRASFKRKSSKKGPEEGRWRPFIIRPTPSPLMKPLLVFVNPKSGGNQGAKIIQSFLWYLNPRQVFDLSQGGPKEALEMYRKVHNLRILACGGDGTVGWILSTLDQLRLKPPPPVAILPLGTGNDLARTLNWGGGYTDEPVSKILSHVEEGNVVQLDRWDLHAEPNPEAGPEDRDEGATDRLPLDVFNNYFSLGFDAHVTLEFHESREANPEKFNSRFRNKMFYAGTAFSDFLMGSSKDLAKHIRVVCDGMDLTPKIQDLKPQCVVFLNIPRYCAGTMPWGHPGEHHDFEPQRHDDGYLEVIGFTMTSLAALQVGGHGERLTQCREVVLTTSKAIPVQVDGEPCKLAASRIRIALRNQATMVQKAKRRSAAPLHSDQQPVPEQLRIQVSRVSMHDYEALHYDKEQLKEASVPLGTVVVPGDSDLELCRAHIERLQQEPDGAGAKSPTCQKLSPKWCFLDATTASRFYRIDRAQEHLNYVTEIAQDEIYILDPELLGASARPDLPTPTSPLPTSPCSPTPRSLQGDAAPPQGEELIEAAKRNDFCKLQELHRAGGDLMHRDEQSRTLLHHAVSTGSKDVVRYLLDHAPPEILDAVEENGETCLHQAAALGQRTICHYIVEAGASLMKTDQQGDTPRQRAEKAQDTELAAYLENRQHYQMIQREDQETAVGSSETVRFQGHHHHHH
human DGKα, sequence (P23743 whole entry, looked up): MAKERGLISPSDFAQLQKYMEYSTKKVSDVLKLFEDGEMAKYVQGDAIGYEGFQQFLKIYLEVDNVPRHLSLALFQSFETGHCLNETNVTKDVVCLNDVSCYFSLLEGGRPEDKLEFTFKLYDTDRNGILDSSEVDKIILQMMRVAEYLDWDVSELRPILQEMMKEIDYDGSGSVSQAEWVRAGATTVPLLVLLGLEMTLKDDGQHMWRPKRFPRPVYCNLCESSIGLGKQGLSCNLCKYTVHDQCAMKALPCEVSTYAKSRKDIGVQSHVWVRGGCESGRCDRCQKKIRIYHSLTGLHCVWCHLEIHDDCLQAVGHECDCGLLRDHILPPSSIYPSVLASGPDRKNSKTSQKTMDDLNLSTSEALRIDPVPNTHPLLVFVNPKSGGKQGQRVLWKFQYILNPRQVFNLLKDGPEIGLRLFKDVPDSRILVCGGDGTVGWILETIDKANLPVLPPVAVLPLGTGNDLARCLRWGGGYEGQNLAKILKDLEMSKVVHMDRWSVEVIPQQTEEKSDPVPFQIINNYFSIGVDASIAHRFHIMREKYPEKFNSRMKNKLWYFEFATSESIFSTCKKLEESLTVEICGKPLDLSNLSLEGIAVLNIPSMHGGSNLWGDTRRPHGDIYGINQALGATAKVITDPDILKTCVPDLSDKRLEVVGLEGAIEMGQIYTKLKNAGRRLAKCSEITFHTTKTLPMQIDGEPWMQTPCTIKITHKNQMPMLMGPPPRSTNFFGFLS

As for `CC(c1ccc(OC(F)(F)F)c(F)c1)N1C[C@H](C)N(c2nc(=O)n(C)c3ccc(C#N)nc23)C[C@H]1C` (single isomer, unassigned) [Example 161], the IC50 in test [1] (setting [4]) was determined as 2100 nM; in test [2] (setting [5]) it was 1210 nM. Also, the EC50 in test [3] (setting [6]) was determined as 4010 nM.

Regarding `CC[C@H]1CN(C(c2ccc(F)cc2)c2ccc(C(F)(F)F)cn2)[C@H](C)CN1c1nc(=O)n(C)c2ccc(C#N)nc12` (stereo partly drawn) [Example 114, 4-((2S,5R)-2-ethyl-4-((4-fluorophenyl)(5-(trifluoromethyl)pyridin-2-yl)methyl)-5-methylpiperazin-1-yl)-1-methyl-2-oxo-1,2-dihydropyrido[3,2-d]pyrimidine-6-carbonitrile], the IC50 in test [1] (setting [4]) came to 160 nM; in test [2] (setting [5]) it was 440 nM. The EC50 in test [3] (setting [6]) is 470 nM.

`CCC(c1ccc(OC(F)F)cc1)N1C[C@H](C)N(c2nc(=O)n(C)c3ccc(C#N)nc23)C[C@H]1CC` (single isomer, unassigned) [Example 78]: the IC50 in test [1] (setting [4]) came to 470 nM; in test [2] (setting [5]), 1130 nM. The EC50 in test [3] (setting [7]) amounted to 75 nM.

Consider `C[C@@H]1CN(c2nc(=O)n(C)c3ccc(C#N)nc23)[C@@H](C)CN1C(c1ccc(OC(F)(F)F)cc1)c1cc(C2CC2)on1` (single isomer, unassigned) [Example 164], for which the IC50 in test [1] (setting [4]) amounted to 120 nM; in test [2] (setting [5]) it was 340 nM. Besides, the EC50 in test [3] (setting [7]) is 650 nM.

In the case of `CC[C@@H]1CN(c2nc(=O)n(C)c3ccc(C#N)nc23)[C@@H](C)CN1C(C)c1ccc(OCC2CC2)cc1F` (single isomer, unassigned) [Example 70], the IC50 is 840 nM in test [1] (setting [4]) and 1410 nM in test [2] (setting [5]). The EC50 in test [3] (setting [6]) was 1440 nM.

With `CC[C@@H]1CN(c2nc(=O)n(C)c3ccc(C#N)nc23)[C@@H](C)CN1C(c1ccc(F)cc1)c1cnc(C2CC2)s1` (single isomer, unassigned) [Example 104], the IC50 in test [1] (setting [4]) was 470 nM; in test [2] (setting [5]), 110 nM. The EC50 in test [3] (setting [6]) stood at 210 nM.

With `C[C@@H]1CN(c2nc(=O)n(C)c3ccc(C#N)nc23)[C@@H](C)CN1Cc1cc(F)c(F)c(F)c1` [Example 130, 4-((2S,5R)-2,5-dimethyl-4-(3,4,5-trifluorobenzyl)piperazin-1-yl)-1-methyl-2-oxo-1,2-dihydropyrido[3,2-d]pyrimidine-6-carbonitrile], the values for the IC50 in test [1] (setting [4]) and in test [2] (setting [5]) were 12400 nM and 960 nM, respectively. Moreover, the EC50 in test [3] (setting [7]) stood at 4070 nM.

For `CC[C@@H]1CN(c2nc(=O)n(C)c3ccc(C#N)nc23)[C@@H](C)CN1C(c1ccc(F)cc1)c1cnc(C2CC2)s1` (single isomer, unassigned) [Example 103], the IC50 worked out at 170 nM in test [1] (setting [4]) and 36 nM in test [2] (setting [5]). In addition, the EC50 in test [3] (setting [6]) is 94 nM.

In the case of `CC[C@H]1CN(C(C)c2ccc3c(c2)OC(F)(F)O3)[C@H](CC)CN1c1nc(=O)n(C)c2ccc(C#N)nc12` (single isomer, unassigned) [Example 15], the IC50 was determined as 490 nM in test [1] (setting [4]) and 1220 nM in test [2] (setting [5]). Also, the EC50 in test [3] (setting [6]) is 1740 nM.

In the case of `CC[C@H]1CN(C(C)c2ccc(C(F)(F)F)nc2)[C@H](CC)CN1c1nc(=O)n(C)c2ccc(C#N)nc12` (single isomer, unassigned) [Example 45], the IC50 in test [1] (setting [4]) came to 310 nM; in test [2] (setting [5]), 510 nM. Besides, in test [3] (setting [6]), the EC50 was 1040 nM.

Consider `COC[C@@H]1CN(c2nc(=O)n(C)c3ccc(C#N)nc23)[C@@H](C)CN1C(c1ccc(F)cc1)c1ccc(C(F)(F)F)cn1` (single isomer, unassigned) [Example 179], for which the IC50 is 81 nM in test [1] (setting [4]) and 22 nM in test [2] (setting [5]). For the same molecule, the EC50 in test [3] (setting [6]) was 55 nM.

In the case of `CC(c1ccc2c(c1)OC(F)(F)O2)N1C[C@H](C)N(c2nc(=O)n(C)c3ccc(C#N)nc23)C[C@H]1C` (single isomer, unassigned) [Example 167], the IC50 in test [1] (setting [4]) came out at 17800 nM; in test [2] (setting [5]), 2380 nM. Besides, in test [3] (setting [6]), the EC50 was found to be 3850 nM.

Consider `CC[C@@H]1CN(c2nc(=O)n(C)c3ccc(C#N)nc23)[C@@H](C)CN1C(C)c1ccc(C#N)cc1` (single isomer, unassigned) [Example 60], for which the IC50 was found to be 30 nM in test [1] (setting [4]) and 28 nM in test [2] (setting [5]). Moreover, in test [3] (setting [6]), the EC50 was 23 nM.

With `C[C@@H]1CN(c2nc(=O)n(C)c3ccc(C#N)nc23)[C@@H](C)CN1C(c1ccc(F)cc1)c1csc(C(F)(F)F)n1` (single isomer, unassigned) [Example 170], the IC50 in test [1] (setting [4]) is 1610 nM; in test [2] (setting [5]) it was 330 nM. Moreover, the EC50 in test [3] (setting [6]) worked out at 96 nM.

`CC[C@@H]1CN(c2nc(=O)n(C)c3ccc(C#N)nc23)[C@@H](CC)CN1Cc1ccc2c(c1)OC(F)(F)O2` [Example 13, 4-((2S,5R)-4-((2,2-difluorobenzo[d][1,3]dioxol-5-yl)methyl)-2,5-diethylpiperazin-1-yl)-1-methyl-2-oxo-1,2-dihydropyrido[3,2-d]pyrimidine-6-carbonitrile]: the IC50 in test [1] (setting [4]) worked out at 700 nM; in test [2] (setting [5]), 230 nM. Moreover, the EC50 in test [3] (setting [7]) turned out to be 2120 nM.

For the molecule `CC[C@@H]1CN(c2nc(=O)n(C)c3ccc(C#N)nc23)[C@@H](C)CN1C(c1ccc(F)cc1)c1ccccn1` (single isomer, unassigned) [Example 88], the IC50 in test [1] (setting [4]) was determined as 110 nM; in test [2] (setting [5]), 76 nM. Further, the EC50 in test [3] (setting [6]) is 48 nM.

As to `CC[C@@H]1CN(c2nc(=O)n(C)c3ccc(C#N)nc23)[C@@H](C)CN1C(C)c1ccc(C2CC2)cc1F` (single isomer, unassigned) [Example 91], the IC50 in test [1] (setting [4]) was determined as 330 nM; in test [2] (setting [5]), 44 nM. Besides, the EC50 in test [3] (setting [7]) turned out to be 190 nM.

As to `CC(c1ccc(C(F)(F)F)cc1)N1C[C@H](C)N(c2nc(=O)n(C)c3ccc(C#N)nc23)C[C@H]1C` (single isomer, unassigned) [Example 141], the IC50 in test [1] (setting [4]) is 1270 nM; in test [2] (setting [5]) it was 1760 nM. Besides, in test [3] (setting [6]), the EC50 came to 3550 nM.

Turning to `CC(c1ccc(F)c(F)c1)N1C[C@H](C)N(c2nc(=O)n(C)c3ccc(C#N)nc23)C[C@H]1C` (single isomer, unassigned) [Example 148], the IC50 in test [1] (setting [4]) was 260 nM; in test [2] (setting [5]) it was 100 nM. In addition, the EC50 in test [3] (setting [6]) was found to be 570 nM.

With `C[C@@H]1CN(c2nc(=O)n(C)c3ccc(C#N)nc23)[C@@H](C)CN1C(c1ccc(Cl)cc1)c1ccc(Cl)cc1` [Example 373, 4-((2 S, 5R)-4-(bis(4-chlorophenyl)methyl)-2,5-dimethylpiperazin-1-yl)-1-methyl-2-oxo-1,2-dihydropyrido[3,2-d]pyrimidine-6-carbonitrile], the IC50 was 860 nM in test [1] (liposome (LIPGLO) assay, read-out: DGK alpha (liposome assay) IC50) and 2550 nM in test [2] (liposome (LIPGLO) assay, read-out: DGK zeta (liposome assay) IC50). Also, in test [3] (Homo sapiens, 24 h, human whole blood, anti-CD3 plus anti-CD28 stimulation, 24 hours, read-out: IFN-γ Whole Blood EC50), the EC50 worked out at 170 nM.

Take `C[C@@H]1CN(c2nc(=O)n(C)c3ccc(C#N)nc23)[C@@H](C)CN1C(c1ccc(F)cc1)c1nc(C2CC2)cs1` (single isomer, unassigned) [Example 158]: the IC50 is 660 nM in test [1] (setting [4]) and 570 nM in test [2] (setting [5]). Further, the EC50 in test [3] (setting [6]) was determined as 1580 nM.

In the case of `C[C@@H]1CN(c2nc(=O)n(C)c3ccc(C#N)nc23)[C@@H](C)CN1Cc1ccc2c(c1)OC(F)(F)O2` [Example 135, 4-((2S,5R)-4-((2,2-difluorobenzo[d][1,3]dioxol-5-yl)methyl)-2,5-dimethylpiperazin-1-yl)-1-methyl-2-oxo-1,2-dihydropyrido[3,2-d]pyrimidine-6-carbonitrile], the IC50 turned out to be 4500 nM in test [1] (setting [4]) and 1410 nM in test [2] (setting [5]). In addition, in test [3] (setting [7]), the EC50 turned out to be 10700 nM.

As a reminder, the IC50 is the point on the concentration scale where inhibition reaches its midpoint. Usually EC50 stands for the concentration giving half of the maximal effect.
